Consider 21 sequences from patent publication US6838084B1, “Cytotoxic T-cell epitopes of the papilloma virus l1-protein and use thereof in diagnosis and therapy” (priority 1999, dated 2005).

Where two headings read alike, the source gives them in different places.

Assay [1] deals with CVLP-stimulated T cells. The assay can be described thus: Restimulation of CVLP-stimulated T cells, HLA A1-positive donor, 20 mer peptides (γ-interferon FACScan). In kind it is cell-based, human. As to conditions: for restimulation of CVLP-stimulated T cells (CD8-positive T cells reactive by γ-interferon expression): PBMCs with 10 μg/ml peptide, HLA A1-positive donor, FIG. 4. On the procedure:
(§1) The name of the particular peptide with which the PBMCs were loaded is listed from left to right. “None” represents PBMCs which were incubated only with buffer.
Human T cells (4×10^5) of an HLA A1-positive donor were stimulated with HPV16 L1ΔC·E71-55 CVLPs at 37° C. for 5 weeks with weekly addition of 1 μg/ml CVLPs and 10^5 antigen-presenting cells (irradiated PMBCs), and harvested. The cells were then restimulated in 100 μl of medium at 37° C. with 10 μg/ml of the peptides listed along the X axis of FIG. 4 in the presence of 10 IU/ml IL2. Cells incubated only with buffer served as a negative control.
(§2) After one hour, 1 μl of Monensin (300 μM) was added. The cells were incubated at 37° C. for a further 5 hours. The cells were then fixed and permeabilized, and stained with α-hum CD8/PE, with α-hum CD4/Cychrome and with α-hum γ-interferon/FITC. The cells were examined in a FACScan calibur with respect to their label and the data were analyzed with the aid of Cellquest software.

The subject of assay [2] is CVLP-stimulated T cells. The assay can be described thus: Restimulation of CVLP-stimulated T cells, non-HLA-classified donor, 20 mer peptides (γ-interferon FACScan). As to conditions: for restimulation of CVLP-stimulated T cells (CD4-positive T cells reactive by γ-interferon expression): PBMCs with 10 μg/ml peptide, non-HLA-classified donor, FIG. 5; for Epitop-Information (epitope type): Table 2. In kind it is cell-based, human. On the procedure:
as §1
Human T cells (4×10^5) of a non-HLA-classified donor were stimulated with HPV16 L1ΔC·E71-55 CVLPs at 37° C. for 6 weeks with weekly addition of 1 μg/ml CVLPs and 10^5 antigen-presenting cells (irradiated PMBCs), and harvested. The cells were then restimulated in 100 μl of medium at 37° C. with 10 μg/ml of the peptides listed along the X axis of FIG. 5 in the presence of 10 IU/ml IL2. Cells incubated only with buffer served as a negative control.
as §2

A further assay has as its system HLA A1 molecules. As to conditions: Kast et al. (1994) Journal of Immunology 152, 3904-3912, cited from earlier work.
Assay [3] has as its system CVLP-stimulated T cells. The assay can be described thus: Restimulation of CVLP-stimulated T cells, HLA A2.01-positive donor (γ-interferon FACScan). As to conditions: PBMCs incubated with 10 μg/ml antigen, FIG. 3. It is filed as cell-based, human. Here is the method: The content of T cell-specific CD3 for each experiment is listed from left to right and the content of human γ interferon which is specific for activated cells is listed from bottom to top.
Human T cells (4×10^5) of an HLA A2.01-positive donor were stimulated with HPV16 LlΔC·E71-55 CVLPs at 37° C. for 8 weeks with weekly addition of 1 μg/ml CVLPs and 10^5 antigen-presenting cells (irradiated PMBCs), and harvested. The cells were then restimulated in 100 μl of medium at 37° C. with 10 μg/ml various antigens in the presence of 10 IU/ml IL2 and 0.5 μg/ml α-human CD28: • a) with CVLP-incubated PBMCs overnight • b) with L1 2022 peptide-incubated PBMCs overnight • c) with L1 2025 peptide (control peptide)incubated PBMCs overnight
After one hour, 1 μl of Golgi Plug was added. The cells were incubated at 37° C. for a further 5 hours. The cells were then fixed and permeabilized, and stained with α-hum CD3/PE, with α-hum CD4/Cychrome and with α-hum γ-interferon/FITC. The cells were examined in a FACScan calibur with respect to their label and the data were analyzed with the aid of Cellquest software.

A further assay concerns CVLP-specific T cells. The assay can be described thus: Peptide-specific TNFα secretion by CVLP-stimulated T cells (WEHI cell/MTT readout). It is filed as cell-based, human. The conditions noted are these: PMBC + 10 μg/ml peptide, overnight, 10 IU/ml IL-2; HLA A2.01-positive donor; FIG. 1. An excerpt:
T cells stimulated by specific, antigen-presenting PBLs release TNFα. This induces apoptosis in WEHI cells so that these cells are no longer able to process MTT into a brownish dye. Low absorption means low dye production and thus many apoptotic cells which had thus been exposed to a lot of TNFα so that the corresponding T cells had been stimulated. Thus, stimulation of T cells improves with decreasing absorption at 595 nm for a particular antigen.
Human T cells (4×10^5) of an HLA A2.01-positive donor were stimulated with HPV16 L1ΔC·E71-55 CVLPs at 37° C. for 8 weeks with weekly addition of 1 μg/ml CVLPs, 10^5 irradiated peripheral blood mononuclear cells (PMBCs) and 10 IU/ml IL-2, and harvested.
The cells were stimulated in 100 μl of medium at 37° C. overnight with different antigens (PMBC+E7 peptide; PMBC+HPV16 L1αC·E71-55 (CVLP); PMBC+5104, 5105, 5106, 5107, 5108, 5109, 5112, 5113, 10 μg/ml each) in the presence of 10 IU/ml IL-2. During this time, stimulated cells produce TNFα.
The following day, 50 μl of supernatant were removed, frozen, thawed again (in order to destroy possibly coremoved cells) and added to 50 μl of a cell suspension containing 0.9×10^6 WEHI cells, 2 μg/ml actinomycin D and 400 mM LiCl. The cells were incubated at 37° C. for 24 h. During this time, TNFα (if present in the supernatant) induces apoptosis of WEHI cells. Addition of 50 μl of a 2.5 mg/ml MTT solution in PBS stained non-apoptotic cells brown within three hours, whereas apoptotic cells remained yellow. All cells were lysed by adding 100 μl of lysis buffer (34% N,N-dimethylformamide, 20% sodium dodecyl sulfate) and incubating at 37° for at least 6 hours so that the dyes were released. Finally, absorption of the solution was measured at 595 nm.
Low absorption means low dye production and thus many apoptotic cells which had thus been exposed to a lot of TNFα so that the corresponding T cells had been stimulated. Thus, T-cell stimulation improved with decreasing absorption at 595 nm.

Assay [4] addresses T1, MHC-1 complexes of T2 cells (Homo sapiens, UniProt P04439, I119V/I121R/I166T/I218V/L300P/L318F/N151K/N90K/P208A/P217A/Q86G/Q94H/R138H/R169H/T345S).
T1 construct: The unloaded MHC-1 molecules which are nevertheless present on the cell surface; host or cells: T2 cells
In kind it is binding. As to conditions: 0, 10 or 100 μg/ml peptide overnight; BB7.2 antibody, FACS; FIG. 2.

For the sequence “AEPDRAHYNIVTFCCXCDST (AEPDRAHYNIVTFCCKCDST; Human papillomavirus type 16) [Peptide 48]”, the “restimulation of CVLP-stimulated T cells (CD8-positive T cells reactive by γ-interferon expression)” value in the assay on CVLP-stimulated T cells [1] is on record as “effected restimulation of CVLP-stimulated T cells”.

As for ASSNYFPTPSGSMVTSDAQI [Peptide 27], in the assay with CVLP-stimulated T cells [2], the “restimulation of CVLP-stimulated T cells (CD4-positive T cells reactive by γ-interferon expression)” value is “effected restimulation of CVLP-stimulated T cells” and the “Epitop-Information (epitope type)” value is listed as “T-helper epitope”.

“EEDEIDGPAGQAEPDRAHYN (Human papillomavirus type 16) [Peptide 47]”: in the assay with CVLP-stimulated T cells [1], the “restimulation of CVLP-stimulated T cells (CD8-positive T cells reactive by γ-interferon expression)” value is listed as “effected restimulation of CVLP-stimulated T cells”.

For “ETTDLYCY (Human papillomavirus type 16) [peptide contained in peptide 45]”, the results for the “binding to HLA A1 molecules” value in the assay with HLA A1 molecules and with HLA A1 molecules (listed as E7 peptide 45) were “described as HLA A1-binding peptide” and “can bind to HLA A1 molecules”, respectively.

On to “GLQYRVFRI (Human papillomavirus type 16) [Peptide 2025]”, for which, in the assay on CVLP-stimulated T cells [3], the “restimulation of CVLP-stimulated T cells (γ interferon, CD3)” value is “not control peptide-incubated PBMCs, effected restimulation”.

Regarding “HLFNRAGTV (Human papillomavirus type 16) [Peptide 5107]”, the “stimulating CVLP-specific T cells (TNFα secretion, absorption at 595 nm)” value (shortened to “stimulating CVLP-specific T cells”) in the assay with CVLP-specific T cells is listed as “capable of stimulating CVLP-specific T cells”. Further, the “MHC molecules on the cell surface of T2 cells (fluorescence), indicating binding to MHC molecules” value (“MHC molecules on the cell surface” for short) in assay [4] is “significantly more MHC molecules on the cell surface”.

For “ICWGNQLFV (Human papillomavirus type 16) [Peptide 2022]”, the “MHC molecules on the cell surface” value in assay [4] was “significantly more MHC molecules on the cell surface”. Moreover, the “restimulation of CVLP-stimulated T cells (γ interferon, CD3)” value in the assay with CVLP-stimulated T cells [3] is “effected restimulation of CVLP-stimulated T cells”.

Regarding “ILEDWNFGL (Human papillomavirus type 16) [Peptide 5112]”, in the assay with CVLP-specific T cells, the “stimulating CVLP-specific T cells” value was “capable of stimulating CVLP-specific T cells”. The “MHC molecules on the cell surface” value in assay [4] is reported as “significantly more MHC molecules on the cell surface”.

On to “ILVPKVSGL (Human papillomavirus type 16) [Peptide 5104]”, for which, in the assay with CVLP-specific T cells, the “stimulating CVLP-specific T cells” value is “capable of stimulating CVLP-specific T cells”.

In the case of “MHGDTPTLH (Human papillomavirus type 16) [9 mer contained in peptide 43]”, the “binding to HLA A1 molecules” value in the assay on HLA A1 molecules is recorded as “described as HLA A1-binding peptides”; with HLA A1 molecules (listed as E7 peptide 43), “can bind to HLA A1 molecules”.

Turning to “NLASSNYFPT (Human papillomavirus type 16) [Peptide 2017]”, the “MHC molecules on the cell surface” value in assay [4] is “significantly more MHC molecules on the cell surface”.

Take “PLGRKFLLQAGMHGDTPTLH (Human papillomavirus type 16) [Peptide 43]”: the “restimulation of CVLP-stimulated T cells (CD8-positive T cells reactive by γ-interferon expression)” value with CVLP-stimulated T cells [1] is reported as “effected restimulation of CVLP-stimulated T cells”. In the assay on CVLP-stimulated T cells [1] (Table 2), the “Epitop-Information (HLA restriction)” value is given as “HLA A1 restr” and the “Epitop-Information (epitope type)” value is on record as “cytotoxic epitope”.

As to “QAEPDRAHYN (Human papillomavirus type 16) [10 mer contained in overlapping peptides 47 and 48]”, the “binding to HLA A1 molecules” value in the assay on HLA A1 molecules is “described as HLA A1-binding peptides”; in the assay with HLA A1 molecules (listed as E7 peptide 47/48), “can bind to HLA A1 molecules”.

For the sequence “RLVWACVGV (Human papillomavirus type 16) [Peptide 5106]”, the “stimulating CVLP-specific T cells” value with CVLP-specific T cells is given as “capable of stimulating CVLP-specific T cells”. The “MHC molecules on the cell surface” value in assay [4] was “significantly more MHC molecules on the cell surface”.

As for SLWLPSEATVYL [Peptide 2016], the “MHC molecules on the cell surface” value in assay [4] is given as “significantly more MHC molecules on the cell surface”.

For SMVTSDAQIFNKPYWLQRAQ [Peptide 28], in the assay on CVLP-stimulated T cells [2], the “restimulation of CVLP-stimulated T cells (CD4-positive T cells reactive by γ-interferon expression)” value was “effected restimulation of CVLP-stimulated T cells” and the “Epitop-Information (epitope type)” value is reported as “T-helper epitope”.

For the sequence “TLQANKSEV (Human papillomavirus type 16) [Peptide 5109]”, in the assay on CVLP-specific T cells, the “stimulating CVLP-specific T cells” value is “capable of stimulating CVLP-specific T cells”. Further, the “MHC molecules on the cell surface” value in assay [4] is given as “significantly more MHC molecules on the cell surface”.

In the case of “TLTADVMTYI (Human papillomavirus type 16) [Peptide 2018]”, in assay [4], the “MHC molecules on the cell surface” value is reported as “significantly more MHC molecules on the cell surface”.

Turning to “YDLQFIFQL (Human papillomavirus type 16) [Peptide 2020]”, in assay [4], the “MHC molecules on the cell surface” value is on record as “significantly more MHC molecules on the cell surface”.

“YLPPVPVSKV (Human papillomavirus type 16) [Peptide 2019]”: the “MHC molecules on the cell surface” value in assay [4] is reported as “significantly more MHC molecules on the cell surface”.

Regarding “YLRREQMFV (Human papillomavirus type 16) [Peptide 5108]”, in the assay with CVLP-specific T cells, the “stimulating CVLP-specific T cells” value is recorded as “capable of stimulating CVLP-specific T cells”.
